Experimental findings from ChEMBL document CHEMBL1156105 (J Med Chem, 2009) are described below.

The test system of data set [1] is Plasma. The data set can be described thus: Metabolic stability in 50% human plasma assessed as aspirin release at pH 7.4 by RP-HPLC. Further: time not given here. The format is ADME, cell-free.
The test system of data set [2] is Plasma. The data set can be described thus: Metabolic stability in 10% human plasma assessed as aspirin release at pH 7.4 by RP-HPLC. Further: time not given here. It is filed as ADME, cell-free.
Data set [3] is described as follows: Metabolic stability in 10% human plasma assessed as half life at pH 7.4 by RP-HPLC.
The nature of data set [4]: Metabolic stability in 50% human plasma assessed as half life at pH 7.4 by RP-HPLC.
Data set [5] in a line: Antiplatelets aggregatory activity in human platelets rich plasma assessed as inhibition of collagen-induced platelets aggregation by aggregometry. It is filed as functional, cell-free. Conditions: Platelet.
The subject of data set [6] is Platelet. The data set can be described thus: Antiplatelets aggregatory activity in human platelets rich plasma assessed as inhibition of ADP-induced platelets aggregation by aggregometry. The format is functional, cell-free.
The subject of data set [7] is Platelet. The data set can be described thus: Antiplatelets aggregatory activity in human platelets rich plasma assessed as inhibition of ADP-induced platelets aggregation by aggregometry in presence of […] ODQ. It is filed as functional, cell-free.
In data set [8] the test system is Platelet. The data set can be described thus: Antiplatelets aggregatory activity in washed human platelets assessed as inhibition of ADP-induced platelets aggregation by aggregometry in presence of glutathione. The format is functional, cell-based.
The test system of data set [9] is Platelet. Kind of data set: Antiplatelets aggregatory activity in washed human platelets assessed as inhibition of ADP-induced platelets aggregation by aggregometry in presence of glutathione and ODQ. The format is functional, cell-based.

Calls of active or inactive are those of the source.

The term half-life denotes the time needed for the level to fall by half in the phase considered. For the compound `CC(=O)Oc1ccccc1C(=O)O[C@H]1CO[C@H]2[C@@H]1OC[C@H]2O`, the Activity in the data set on Plasma [1] and with Plasma [2] was less than 0.5% each time. Moreover, the half-life in data set [3] turned out to be 3.3 min; in [4], 1.1 min.

Consider `CC(=O)Oc1ccccc1C(=O)O[C@H]1CO[C@H]2[C@@H]1OC[C@H]2OC(=O)c1cccc(C)c1`, for which the values for the Activity in the data set on Plasma [1] and in the data set with Plasma [2] were 54% and 38%, respectively. Besides, the half-life was determined as 9.9 min in [3] and 1.22 min in data set [4].

Consider `CC(=O)Oc1ccccc1C(=O)O[C@H]1CO[C@H]2[C@@H]1OC[C@H]2OC(=O)c1ccc(O)cc1`, for which the values for the Activity in the data set with Plasma [1] and in the data set on Plasma [2] were 0.5% and 1%, respectively. Besides, the half-life in data set [3] and in data set [4] was 1.19 min each time.

On to `CCCCC(=O)O[C@@H]1CO[C@H]2[C@@H]1OC[C@@H]2OC(=O)c1ccccc1OC(C)=O`, for which, in the data set with Plasma [1], the Activity was less than 0.5%. Further, the half-life in data set [3] came to 1.19 min; in data set [4], 0.7 min.

Take `CC(=O)Oc1ccccc1C(=O)O[C@H]1CO[C@H]2[C@@H]1OC[C@H]2OC(=O)c1cnccc1Cl`: the results for the Activity in the data set on Plasma [1] and with Plasma [2] were 17% and 18%, respectively. Moreover, the half-life in data set [3] was 3.85 min; in data set [4] it was 1.93 min.

For `CC(=O)Oc1ccccc1C(=O)O[C@H]1CO[C@H]2[C@@H]1OC[C@H]2OC(=O)c1ccccc1C`, the values for the Activity in the data set with Plasma [1] and in the data set on Plasma [2] were 59% and 46%, respectively. Moreover, the values for the half-life in [3] and in data set [4] were 2.1 min and 0.83 min, respectively.

One may read the IC50 as the concentration at which inhibition is half-maximal. `CC(=O)Oc1ccccc1C(=O)O[C@H]1CO[C@H]2[C@@H]1OC[C@H]2OC(=O)c1ccccc1CO[N+](=O)[O-]`: the Activity in the data set with Plasma [1] amounted to 34%; with Plasma [2], 32%. Besides, the IC50 in data set [5] turned out to be 90.3 µM. The half-life in data set [3] stood at 2.7 min; in data set [4], 3.2 min.

For `CC(=O)Oc1ccccc1C(=O)O[C@@H]1CO[C@H]2[C@@H]1OC[C@@H]2O[N+](=O)[O-]` (racemic), the half-life in data set [3] turned out to be 1.3 min.

For the compound `CC(=O)Oc1ccccc1C(=O)O` [ASPIRIN], the IC50 in data set [5] was determined as 20.6 µM.

For the compound `CC(=O)Oc1ccccc1C(=O)O[C@H]1CO[C@H]2[C@@H]1OC[C@H]2OC(=O)c1snnc1C`, the Activity in the data set with Plasma [1] came out at 31%; in the data set with Plasma [2] it was 32%. For the same compound, the half-life in [3] was 3.85 min; in data set [4], 0.39 min.

As to `CC(=O)Oc1ccccc1C(=O)O[C@H]1CO[C@H]2[C@@H]1OC[C@H]2OC(=O)c1cccnc1`, the figures for the Activity in the data set on Plasma [1] and in the data set with Plasma [2] were 32% and 41%, respectively. Moreover, the half-life was 1.39 min in data set [3] and 0.37 min in data set [4].

In the case of `CC(=O)Oc1ccccc1C(=O)O[C@H]1CO[C@H]2[C@@H]1OC[C@H]2OC(=O)c1cc(C)nc(Cl)c1`, the Activity was 14% in the data set on Plasma [1] and 24% in the data set on Plasma [2]. Also, the half-life in data set [3] and in [4] was 1.16 min each time.

As for `CC(=O)Oc1ccccc1C(=O)O[C@H]1CO[C@H]2[C@@H]1OC[C@H]2OC(C)=O`, the Activity in the data set with Plasma [1] is on record as 1.3%; in the data set with Plasma [2], 1.2%. Further, the half-life in data set [3] turned out to be 3.65 min; in [4] it was 0.57 min.

For the compound `CC(=O)Oc1ccccc1C(=O)O[C@H]1CO[C@H]2[C@@H]1OC[C@H]2OC(=O)c1ccncc1`, the Activity in the data set with Plasma [1] was found to be 27%; with Plasma [2] it was 19%. Moreover, the half-life in data set [3] was found to be 3.7 min; in data set [4] it was 0.33 min.

`CC(=O)Oc1ccccc1C(=O)O[C@H]1CO[C@H]2[C@@H]1OC[C@H]2OC(=O)c1ccc(C#N)cc1`: the Activity in the data set with Plasma [1] is less than 0.5%; in the data set on Plasma [2] it was 19%. Further, the half-life in data set [3] was determined as 5.33 min; in data set [4] it was 4.08 min.

Take `COc1cccc(C(=O)O[C@@H]2CO[C@H]3[C@@H]2OC[C@@H]3OC(=O)c2ccccc2OC(C)=O)c1`: the figures for the Activity in the data set on Plasma [1] and with Plasma [2] were 17% and 19%, respectively. In addition, the half-life in data set [3] came out at 3.15 min; in [4], 0.85 min.

Regarding `CC(=O)Oc1ccccc1C(=O)O[C@H]1CO[C@H]2[C@@H]1OC[C@H]2OC(=O)c1ccc(C)cc1`, the results for the Activity in the data set on Plasma [1] and in the data set with Plasma [2] were 14.7% and 16%, respectively. In addition, the half-life was found to be 6.3 min in data set [3] and 2.17 min in data set [4].

Consider `COc1ccccc1C(=O)O[C@@H]1CO[C@H]2[C@@H]1OC[C@@H]2OC(=O)c1ccccc1OC(C)=O`, for which the Activity was determined as 7% in the data set with Plasma [1] and 5% in the data set on Plasma [2]. For the same compound, the half-life in data set [3] came out at 3.47 min; in data set [4], 0.99 min.

Consider `CC(=O)Oc1ccccc1C(=O)O[C@H]1CO[C@H]2[C@@H]1OC[C@H]2OC(=O)CO[N+](=O)[O-]`, for which the figures for the half-life in data set [3] and in data set [4] were 3.6 min and 0.9 min, respectively.

Consider `CC(=O)Oc1ccccc1C(=O)O[C@H]1CO[C@H]2[C@@H]1OC[C@H]2OC(=O)c1cccc(O)c1`, for which the Activity was found to be 29% in the data set on Plasma [1] and 44% in the data set on Plasma [2]. Also, the half-life is 1.1 min in data set [3] and 0.9 min in [4].

Turning to `CC(=O)Oc1ccccc1C(=O)O[C@H]1CO[C@H]2[C@@H]1OC[C@H]2OC(=O)c1ccnn1C`, the Activity is recorded as 6% in the data set with Plasma [1] and 7% with Plasma [2]. Besides, the half-life in data set [3] amounted to 5.78 min; in [4], 3.85 min.

Consider `CC(=O)Nc1cccc(C(=O)O[C@@H]2CO[C@H]3[C@@H]2OC[C@@H]3OC(=O)c2ccccc2OC(C)=O)c1`, for which the Activity in the data set on Plasma [1] came out at 11%. Besides, the half-life in data set [4] is 3.5 min.

As to `CC(=O)Oc1ccccc1C(=O)O[C@H]1CO[C@H]2[C@@H]1OC[C@H]2OC(=O)c1ccc(-c2ccccc2)cc1`, the Activity with Plasma [1] and with Plasma [2] was less than 0.5% each time. For the same compound, the half-life in data set [3] and in data set [4] was greater than 20 min each time.

In the case of `CC(=O)Oc1ccccc1C(=O)O[C@H]1CO[C@H]2[C@@H]1OC[C@H]2OC(=O)c1cccc(CO[N+](=O)[O-])c1`, the Activity was 55% with Plasma [1] and 51% in the data set on Plasma [2]. In addition, the IC50 in data set [5] stood at 17.1 µM. For the same compound, the inhibition entry in the data set with Platelet [6] and in the data set on Platelet [8] was “Active” throughout. In addition, the inhibition entry in the data set on Platelet [7] and in the data set on Platelet [9] was “inactive” each time. In addition, the half-life in data set [3] was 2.6 min; in data set [4], 2.7 min.

Consider `CC(=O)Oc1ccccc1C(=O)O[C@H]1CO[C@H]2[C@@H]1OC[C@H]2OC(=O)c1ccc([N+](=O)[O-])cc1`, for which the Activity is recorded as 22% in the data set on Plasma [1] and 13% with Plasma [2]. The half-life in [3] was found to be 2.77 min; in data set [4], 1.36 min.

`CC(=O)Oc1ccccc1C(=O)O[C@H]1CO[C@H]2[C@@H]1OC[C@H]2OC(=O)C1CC1`: the Activity is on record as less than 0.5% with Plasma [1] and 2% with Plasma [2]. The figures for the half-life in [3] and in [4] were 1.93 min and 0.9 min, respectively.

Regarding `CCOc1cc(OCC)cc(C(=O)O[C@@H]2CO[C@H]3[C@@H]2OC[C@@H]3OC(=O)c2ccccc2OC(C)=O)c1`, the Activity in the data set on Plasma [1] is listed as less than 0.5%. Further, the half-life in data set [4] worked out at 1.7 min.

On to `CC(=O)Oc1ccccc1C(=O)O[C@H]1CO[C@H]2[C@@H]1OC[C@H]2OC(=O)c1ccccc1O`, for which the Activity is given as 85% in the data set on Plasma [1] and 72% in the data set with Plasma [2]. Also, in data set [5], the IC50 is 20.6 µM. Also, in the data set on Platelet [6], the inhibition result is “Active”. For the same compound, the half-life in data set [3] is 4.95 min; in data set [4], 1.14 min.

In the case of `CCC(=O)O[C@@H]1CO[C@H]2[C@@H]1OC[C@@H]2OC(=O)c1ccccc1OC(C)=O`, the values for the Activity with Plasma [1] and with Plasma [2] were 7% and 6.8%, respectively. In addition, the half-life worked out at 3.65 min in [3] and 0.66 min in data set [4].

For the compound `CC(=O)Oc1ccccc1C(=O)O[C@H]1CO[C@H]2[C@@H]1OC[C@H]2OC(=O)c1ccccc1`, the figures for the Activity in the data set on Plasma [1] and with Plasma [2] were 29% and 19%, respectively. Also, the half-life in data set [3] is 3.3 min; in data set [4], 0.64 min.

Turning to `CC(=O)Oc1ccccc1C(=O)O[C@H]1CO[C@H]2[C@@H]1OC[C@H]2OC(=O)c1ccc(CO[N+](=O)[O-])cc1`, the Activity is recorded as less than 1% in the data set with Plasma [1] and less than 5% in the data set with Plasma [2]. In [5], the IC50 was greater than 300 µM. For the same compound, the half-life in data set [3] is 6 min; in data set [4], 2.4 min.

With `CC(=O)Oc1ccccc1C(=O)O[C@H]1CO[C@H]2[C@@H]1OC[C@H]2OC(=O)c1ccccc1OC(=O)c1ccccc1`, the Activity is listed as 19% with Plasma [1] and 28% in the data set with Plasma [2]. Further, the results for the half-life in [3] and in [4] were 23.1 min and 4.33 min, respectively.

For the compound `COc1ccc(C(=O)O[C@@H]2CO[C@H]3[C@@H]2OC[C@@H]3OC(=O)c2ccccc2OC(C)=O)cc1`, the values for the Activity in the data set on Plasma [1] and in the data set on Plasma [2] were 4% and 2.6%, respectively. Besides, the values for the half-life in [3] and in data set [4] were 3.15 min and 1.1 min, respectively.

With `CC(=O)Oc1ccccc1C(=O)O[C@H]1CO[C@H]2[C@@H]1OC[C@H]2OC(=O)CCO[N+](=O)[O-]`, the figures for the half-life in [3] and in data set [4] were 3.9 min and 1.3 min, respectively.
